Laboratory results published in ChEMBL document CHEMBL5316372, “NMR Fingerprints of Formyl Phloroglucinol Meroterpenoids and Their Application to the Investigation of Eucalyptus gittinsii subsp. gittinsii” (J Nat Prod, 2023).
In brackets after ≈: the same amount, converted by molar mass.

What was measured:
[1] = Cytotoxicity against HEK293 cells assessed as inhibition of cell growth at 40 uM incubated for 72 hrs by resazurin based fluorescence plate reader analysis relative to control; format: toxicity; settings: human
[2] = tested on: Plasmodium falciparum; assay: Antiplasmodial activity against Plasmodium falciparum 3D7 incubated for 72 hrs by DAPI staining based analysis; format: functional, organism-based; settings: 3D7, 72 h
[3] = tested on: Staphylococcus aureus; assay: Antibacterial activity against Methicillin-resistant Staphylococcus aureus ATCC 43300 incubated for 18 hrs by Luria-Bertani broth based plate reader analysis; format: functional
[4] = tested on: Staphylococcus aureus; assay: Antibacterial activity against Methicillin-sensitive Staphylococcus aureus ATCC 25923 incubated for 18 hrs by Luria-Bertani broth based plate reader analysis; format: functional
[5] = tested on: HEK293; assay: Cytotoxicity against HEK293 cells assessed as reduction in cell viability at 40 uM incubated for 72 hrs by resazurin based fluorescence plate reader analysis; format: toxicity; settings: human, hek293, 72 h
[6] = tested on: HEK293; assay: Cytotoxicity against HEK293 cells assessed as reduction in cell viability at 2.5 uM incubated for 72 hrs by resazurin based fluorescence plate reader analysis; format: toxicity; settings: human, hek293, 72 h
[7] = Cytotoxicity against HEK293 cells assessed as inhibition of cell growth at 5 uM incubated for 72 hrs by resazurin based fluorescence plate reader analysis relative to control; format: toxicity; settings: human

| Structure (SMILES) | inhibition at 72 h, 40 µM [1] [%] | IC50 [2] [µM] | MIC50 [3] [µM] | MIC50 [4] [µM] | Activity [5] | Activity [6] | inhibition at 72 h, 5 µM [7] [%] |
| --- | --- | --- | --- | --- | --- | --- | --- |
| C=C(C)[C@@H]1C=C2[C@@H](C)CC[C@@H](Cc3c(O)c(C=O)c(O)c(C(=O)CC(C)C)c3O)[C@]2(C)CC1 | > 85 | 1.3 | 4.7 (≈ 2.14 µg/mL) | 4.7 (≈ 2.14 µg/mL) | – | – | – |
| C/C1=C\[C@H]2[C@@H](CC[C@]3(C)Oc4c(C=O)c(O)c(C(=O)CC(C)C)c(O)c4C[C@H]3CC1)C2(C)C | – | 23.6 | > 75 | > 75 | Non-Toxic | – | – |
| C/C1=C\[C@@H]2[C@H](CC[C@@]3(C)Oc4c(c(O)c(C=O)c(O)c4C(=O)CC(C)C)C[C@@H]3CC1)C2(C)C | – | 15.7 | 75 (≈ 34.1 µg/mL) | 75 (≈ 34.1 µg/mL) | Non-Toxic | – | – |
| C[C@H]1[C@H](OC(=O)CCC(=O)O)O[C@@H]2O[C@@]3(C)CC[C@H]4[C@H](C)CC[C@@H]1[C@@]24OO3 [ARTESUNATE] | – | 0.003 | – | – | – | Non-Toxic | – |
| CC(=O)O[C@H]1C[C@@]2(C)[C@@H](C[C@@H](O)[C@H]3[C@@]4(C)CC[C@@H](O)[C@@H](C)[C@@H]4CC[C@@]32C)/C1=C(\CCC=C(C)C)C(=O)O [FUSIDIC ACID] | – | – | < 0.12 | < 0.12 | – | – | – |
| COc1ccc(C[C@H](N)C(=O)N[C@H]2[C@@H](O)[C@H](n3cnc4c(N(C)C)ncnc43)O[C@@H]2CO)cc1 [PUROMYCIN] | – | 0.08 | – | – | – | – | 0.89 |
| CCc1nc(N)nc(N)c1-c1ccc(Cl)cc1 [PYRIMETHAMINE] | 33.4 | 0.02 | – | – | – | – | – |
